Entries after “also recorded” stand apart in the source; their conditions may differ. Where two headings read alike, the source gives them in different places.
Tests used:
[1] = test system: MCF7; assay: SRB antiproliferative/antigrowth assay; format: cell-based, human; conditions: SRB, 48 h post-treatment, mean of triplicates of at least two experiments, read-out: GI50 MCF7
Experimental: (§1) The antigrowth effects of 4-piperazinylquinoline sulfonyl analogs on human breast tumor cells was initially evaluated using MDA-MB468 (a PTEN defective, EGFR positive breast adenocarcioma), MDA-MB231 (p53 and pRB mutated, triple-negative breast carcinoma), and MCF7 (p53+/−, invasive ductal breast carcinoma) cell lines. In addition, the cytotoxicity of all the compounds was also evaluated with the 184B5 and MCF10A non-cancer immortalized breast epithelial cell lines, to determine if these newly synthesized compounds have differential cytotoxic effects on cancer and non-cancer cells. The panel of three breast cancer cell lines with different genetic back ground and the well-studied two non-cancer immortalized breast cell lines would provide insights into the efficacy and toxicity of the test compounds in the different genetic background and at different stages of tumor development. The dose response of each cell line was established by determining the number of viable cells after 48 h of continuous drug treatment against seven different concentrations (100 µM to 0.0064 µM) of each compound. The reading of sulphorodamine B (SRB) staining is known to accurately reflect the level of total cellular macromolecules/cell growth/proliferation[6],[23]. […] The data for CQ and cisplatin were included as references. […] The differences in the GI50 values may be attributable to such factors as the nature of the sulfonyl group and the halogen substitution on the 7th position of the 4-piperazinylquinoline ring system, and the genetic and biochemical background of the cell lines.
(§2) Antiproliferative/antigrowth effects were determined by a SRB-based protocol[6],[23]. For a typical screening experiment, 5,000–10,000 cells were inoculated into 100 µL medium per well of a 96-well microtiter plate as described previously. Briefly, after the inoculation, the microtiter plate was incubated at 37 °C, 5% CO2, 95% air and 100% relative humidity for 24 h, prior to addition of experimental drugs. Some of the sample wells were fixed with 25 µL of 50% tricholoroacetic acid (TCA) as a control of the cell population for each cell line at the time of drug addition (Tz). An aliquot of the frozen stock was thawed and diluted to a desired final maximum test-concentration with complete medium. Two to ten-fold serial dilutions were made to provide a total of seven drug concentrations (and a control [C]). Following addition of drugs, the culture plate was incubated for additional 48 h. Cells were fixed in situ by slowly adding 25 µL of ice-cold 50% (w/v) TCA (final concentration, 10% TCA), and were then incubated for 60 min at 4 °C. The supernatant was discarded, and the plate was washed five times with tap water, followed by air-dry. 50 µL of SRB solution at 0.4% (w/v) in 1% acetic acid was added to each well, and the plate was incubated for >30 min at room temperature. Unbound SRB was removed by five washes with tap water, followed by air-drying. The cells “stained” with SRB were solubilized with 10 mM trizma base, and the absorbance was read on an automated plate reader at a wavelength of 515–564 nm. The relative growth rate (%) was calculated for each of the compound concentrations according to the following formula: (Ti−Tz)/(C−Tz)×100
(§3) In the formula, time zero (Tz), control growth (C), and OD for different concentration of tested compounds (Ti). The GI50 for each compound was obtained from a non-linear Sigmoidal dose-response (variable slope) curve which is fitted by GraphPad Prism v.4.03 software. Values were calculated for each of these parameters if the level of activity was reached. However, if the effect was not reached or was exceeded, the value for that parameter was expressed as greater or less than the maximum or minimum concentration tested.

[2] = test system: MDA-MB231; assay: SRB antiproliferative/antigrowth assay; format: cell-based, human; conditions: for GI50: SRB, 48 h post-treatment, mean of triplicates of at least two experiments, read-out: GI50 MB231
Experimental: as §1, §2, §3

[3] = test system: MDA-MB468; assay: SRB antiproliferative/antigrowth assay; format: cell-based, human; conditions: SRB, 48 h post-treatment, mean of triplicates of at least two experiments, read-out: GI50 MB468
Experimental: as §1, §2, §3

[4] = test system: 184B5; assay: SRB antiproliferative/antigrowth assay, non-cancer cells; format: cell-based, human; conditions: read-out: GI50 184B5
Experimental: as §1, §2, §3

[5] = test system: MCF10A; assay: as above; format: cell-based, human; conditions: SRB, 48 h post-treatment, non-cancer breast epithelial cells, read-out: GI50 MCF10A
Experimental: as §1, §2, §3

[6] = test system: MDA-MB231, MDA-MB468, MCF7 breast cancer cells; 184B5 and MCF10A non-cancer breast cells; assay: SRB assay, panel of breast cancer and non-cancer breast cell lines; format: cell-based, human; conditions: judged from GI50 values of Table 1
Experimental: as §1, §2, §3

[7] = Homo sapiens, 184B5, 48 h, SRB, 48 h post-treatment, non-cancer breast epithelial cells

| SMILES | GI50 ([1]; Homo sapiens, MCF7, 48 h) [µM] | GI50 ([2]; Homo sapiens, MDA-MB-231, 48 h) [µM] | GI50 ([3]; Homo sapiens, MDA-MB-468, 48 h) [µM] | melting point [°C] | preferential antigrowth effect on cancer versus non-cancer cells (in words) [6] | GI50 [4, 7] [µM] | GI50 ([5]; Homo sapiens, MCF-10A, 48 h) [µM] | other results |
| --- | --- | --- | --- | --- | --- | --- | --- | --- |
| N.N.[Cl][Pt][Cl] [Cisplatin, reference compound] |  |  |  |  | similar |  |  | GI50 [1]: 25.8 ± 0.4 µM; GI50 [2]: 23.7 ± 0.2 µM; GI50 [3]: 31 ± 0.5 µM; GI50 ([4]; SRB, 48 h post-treatment, non-cancer breast epithelial cells): 25.5 ± 0.4 µM; GI50 [5]: 51.5 ± 0.9 µM |
| O=[N+]([O-])c1cccc(S(=O)(=O)N2CCN(c3ccnc4cc(C(F)(F)F)ccc34)CC2)c1 [Compound 21, 4-[4-(3-Nitro-benzenesulfonyl)-piperazin-1-yl]-7-trifluoromethyl-quinoline] | 9.4 ± 0.3 | 32.2 ± 0.6 | 18.6 ± 0.6 | 199 to 201 | effective and preferential antigrowth effects on cancer cells; also recorded: stronger antigrowth/antiproliferation activity against cancer cells than non-cancer cells | 17.7 ± 0.2 | 15.4 ± 0.1 |  |
| O=[N+]([O-])c1ccc(S(=O)(=O)NCCCNc2ccnc3cc(Cl)ccc23)c([N+](=O)[O-])c1 [Compound 31, N-[3-(7-Chloro-quinolin-4-ylamino)-propyl]-2,4-dinitro-benzenesulfonamide] |  |  |  | 238 to 240 |  |  |  | GI50 ([1]; Homo sapiens, MCF7): 6.2 ± 0.3 µM; increase in antigrowth activity against MDA-MB231 compared to mono nitro substituted compounds (30 and 39) [2]: 1.7–2.3 fold; GI50 ([2]; Homo sapiens, MDA-MB-231): 8.9 ± 0.7 µM; GI50 ([3]; Homo sapiens, MDA-MB-468): 7.4 ± 0.2 µM; GI50 ([4]; Homo sapiens, 184B5, 48 h): 9.1 ± 0.6 µM; GI50 ([5]; Homo sapiens, MCF-10A): 19.8 ± 0.9 µM |
| O=S(=O)(NCCCNc1ccnc2cc(C(F)(F)F)ccc12)c1ccc(-c2ccccc2)cc1 [Compound 36, Biphenyl-4-sulfonic acid [3-(7-trifluoromethyl-quinolin-4-ylamino)-propyl]-amide] | 3.6 ± 0.3 | 6 ± 0.4 | 4.2 ± 0.2 | 110 to 112 |  | 2.8 ± 0.1 | 2.2 ± 0.3 |  |
| O=S(=O)(NCCCNc1ccnc2cc(C(F)(F)F)ccc12)c1ccc(Cl)cc1 [Compound 37, 4-Chloro-N-[3-(7-trifluoromethyl-quinolin-4-ylamino)-propyl]-benzenesulfonamide] | 5.4 ± 0.3 | 12.8 ± 0.9 | 10.3 ± 0.6 | 70 to 72 |  | 7.6 ± 0.4 | 17.4 ± 0.1 | increase in potency on MDA-MB231 in comparison to methyl substituted compounds (25 and 34) [2]: 3.5–4.4 fold |

The remaining compounds from weak to strong by GI50 ([1]; Homo sapiens, MCF7, 48 h), led by results:

| GI50 ([1]; Homo sapiens, MCF7, 48 h) [µM] | GI50 ([2]; Homo sapiens, MDA-MB-231, 48 h) [µM] | GI50 ([3]; Homo sapiens, MDA-MB-468, 48 h) [µM] | melting point [°C] | SMILES | preferential antigrowth effect on cancer versus non-cancer cells (in words) [6] | GI50 [4, 7] [µM] | GI50 ([5]; Homo sapiens, MCF-10A, 48 h) [µM] | other results |
| --- | --- | --- | --- | --- | --- | --- | --- | --- |
| 25.6 ± 0.3 | 44.4 ± 0.9 | 28.6 ± 0.7 | 116 to 118 | CS(=O)(=O)N1CCN(c2ccnc3cc(C(F)(F)F)ccc23)CC1 [Compound 16, 4-(4-Methanesulfonyl-piperazin-1-yl)-7-trifluoromethyl-quinoline] | effective and preferential antigrowth effects on cancer cells; also recorded: stronger antigrowth/antiproliferation activity against cancer cells than non-cancer cells | 93.9 ± 0.9 | 75.8 ± 0.8 |  |
| 25.3 ± 1.3 | 55.9 ± 1.6 | 30.4 ± 1 | 171 to 173 | CS(=O)(=O)NCCCNc1ccnc2cc(C(F)(F)F)ccc12 [Compound 34, N-[3-(7-Trifluoromethyl-quinolin-4-ylamino)-propyl]-methanesulfonamide] |  | 59.5 ± 1.6 | 85 ± 1.2 |  |
| 22.3 ± 0.2 | 35 ± 0.8 | 27.5 ± 0.7 | 145 to 147 | CN(C)c1cccc2c(S(=O)(=O)N3CCN(c4ccnc5cc(Cl)ccc45)CC3)cccc12 [Compound 14, 5-(4-(7-Chloroquinolin-4-yl)piperazin-1-ylsulfonyl)-N,N-dimethylnaphthalen-1-amine] | effective and preferential antigrowth effects on cancer cells; also recorded: stronger antigrowth/antiproliferation activity against cancer cells than non-cancer cells | 28.3 ± 0.3 | 32.2 ± 0.3 |  |
| 16.1 ± 0.6 | 34.1 ± 0.7 | 28.8 ± 0.7 | 190 to 192 | Cc1ccc(S(=O)(=O)N2CCN(c3ccnc4cc(Cl)ccc34)CC2)cc1 [Compound 8, 7-Chloro-4-(4-tosylpiperazin-1-yl)quinoline] | effective and preferential antigrowth effects on cancer cells; also recorded: stronger antigrowth/antiproliferation activity against cancer cells than non-cancer cells | 47.5 ± 0.9 | 44.4 ± 0.7 |  |
| 8.3 ± 0.5 | 15.7 ± 1 | 9.1 ± 0.6 | 98 to 100 | O=[N+]([O-])c1cccc(S(=O)(=O)NCCCNc2ccnc3cc(C(F)(F)F)ccc23)c1 [Compound 39, 3-Nitro-N-[3-(7-trifluoromethyl-quinolin-4-ylamino)-propyl]-benzenesulfonamide] |  | 8 ± 0.8 | 10.6 ± 0.9 |  |
| 7.7 ± 0.6 | 14.2 ± 1 | 9.7 ± 0.3 | 199 to 201 | CN(C)c1cccc2c(S(=O)(=O)NCCCNc3ccnc4cc(C(F)(F)F)ccc34)cccc12 [Compound 41, 5-Dimethylamino-naphthalene-1-sulfonic acid [3-(7-trifluoromethyl-quinolin-4-ylamino)-propyl]-amide] |  | 3.7 ± 0.2 | 6.5 ± 0.3 |  |
| 5.2 ± 0.5 | 6.2 ± 0.5 | 5.8 ± 0.4 |  | Cc1ccc(S(=O)(=O)NCCCNc2ccnc3cc(Cl)ccc23)cc1 [Compound 26, N-[3-(7-Chloro-quinolin-4-ylamino)-propyl]-4-methyl-benzenesulfonamide] | effective and preferential antigrowth effects on cancer cells; also recorded: stronger antigrowth/antiproliferation activity against cancer cells than non-cancer cells | 9.6 ± 0.5 | 12.2 ± 0.6 |  |
| 5.2 ± 0.3 | 7 ± 0.6 | 3.9 ± 0.1 | 117 to 119 | O=S(=O)(NCCCNc1ccnc2cc(C(F)(F)F)ccc12)c1ccc(Cl)cc1Cl [Compound 38, 2,4-Dichloro-N-[3-(7-trifluoromethyl-quinolin-4-ylamino)-propyl]-benzenesulfonamide] |  | 3.2 ± 0.1 | 5.3 ± 0.3 |  |

Reference: article PMC6474902, “Examination of novel 4-aminoquinoline derivatives designed and synthesized by a hybrid pharmacophore approach to enhance their anticancer activities” (Scientific Reports, 2019)
